Experimental data: patent US20150099709A1, “GHRELIN RECEPTOR AGONISTS FOR THE TREATMENT OF ACHLORHYDRIA” (RaQualia Pharma Inc., priority 2012, published 2015)

Tested on: intra-gastric pH
Assay: Measurement of intra-gastric pH in dogs (gastric fistula, pH electrode)
Format: in vivo, dog
Conditions: for change of intra-gastric pH value after dosing / time for which the low intra-gastric pH is maintained: dogs, orally, dose not given
Method: Male beagle dogs are used. A metallic cannula is placed in on the left side of the abdomen at the lowest part of the distal gastric corpus region near the greater curvature by a surgical operation. Intra-gastric pH is measured continuously by a flexible pH electrode inserted via the gastric fistula. Vehicle or drugs are administered orally to the dogs.
Compound A 3 mg/kg is orally administered to dogs in a similar way described in Example 1. Intra-gastric pH value is between 2 and 7 in the vehicle-treated conscious dogs.

SMILES	change of intra-gastric pH value after dosing	time for which the low intra-gastric pH is maintained	time for which the low intra-gastric pH value is maintained (male beagle dogs, 3 mg/kg orally)	intra-gastric pH value maintained after administration (male beagle dogs, 3 mg/kg orally, both dogs)	change of intra-gastric pH value after administration (male beagle dogs, 3 mg/kg orally, conscious, FIG. 2)
CC(C)(N)C(=O)N[C@H](COCc1ccc(F)cc1F)C(=O)N1CCC2=NN(CC(F)(F)F)C(=O)[C@]2(Cc2ccccn2)C1 [Compound B, 2-amino-N-[1-(R)-(2,4-difluoro-benzyloxymethyl)-2-oxo-2-(3-oxo-3a-(R)-pyridin-2-ylmethyl-2-(2,2,2-trifluoro-ethyl)-2,3,3a,4,6,7-hexahydropyrazolo[4,3-c]pyridin-5-yl)-ethyl]-2-methyl-propionamide]	decreases soon just after dosing	more than 3 hours			
CN(C)N(C)C(=O)[C@@]1(Cc2ccccc2)CCCN(C(=O)[C@@H](Cc2c[nH]c3ccccc23)NC(=O)C(C)(C)N)C1 [Compound C]	decreases soon just after dosing	more than 3 hours			
C[C@@H]1CN[C@@H](C2CC2)C(=O)N(C)[C@H](C)C(=O)N[C@H](Cc2ccc(F)cc2)C(=O)NCCCc2ccccc2O1 [Compound E, (2R,5S,8R,11R)-5-cyclopropyl-11-(4-fluorobenzyl)-2,7,8-trimethyl-4,5,7,8,10,11,13,14,15,16-decahydro-2H-benzo[q][1,4,7,10,13]oxatetraazacyclooctadecine-6,9,12(3H)-trione]	decreases soon just after dosing	more than 3 hours			
CN(C(=O)/C=C/CC1(N)CCC1)[C@H](Cc1ccc(-c2ccccc2)cc1)C(=O)N(C)[C@H](Cc1ccccc1)C(=O)N1CCC(O)CC1 [Compound D, (E)-N—((R)-3-([1,1′-biphenyl]-4-yl)-1-(((R)-1-(4-hydroxypiperidin-1-yl)-1-oxo-3-phenylpropan-2-yl)(methyl)amino)-1-oxopropan-2-yl)-4-(1-aminocyclobutyl)-N-methylbut-2-enamide]	decreases soon just after dosing	more than 3 hours			
CN1N=C2CCN(C(=O)[C@@H](COCc3ccccc3)NC(=O)C(C)(C)N)C[C@@]2(Cc2ccccc2)C1=O [Compound A, 2-amino-N-[2-(3a-(R)-benzyl-2-methyl-3-oxo-2,3,3a,4,6,7-hexahydropyrazolo[4,3-c]pyridin-5-yl)-1-(R)-benzyloxymethyl-2-oxo-ethyl]isobutyramide]			more than 3 hours	below 2.5	rapidly decreases after the administration
